Laboratory results as given in ChEMBL document CHEMBL1201862, “PubChem BioAssay data set” (2004).
The source made the active and inactive calls.

Columns and labels:
[1] = biological target: Voltage-gated inwardly rectifying potassium channel KCNH2 (Homo sapiens, UniProt Q12809); details: Potency;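 also: confirmatory quantitative high-throughput screen measuring inhibition of hERG channel activity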
cells [2] = format: functional, cell-based
Beta-galactosidase = Beta-galactosidase (Escherichia coli, UniProt Q8VNN2); assay: PubChem AID 485352; format: functional
Chain of Beta-galactosidase (Q8VNN2 whole entry): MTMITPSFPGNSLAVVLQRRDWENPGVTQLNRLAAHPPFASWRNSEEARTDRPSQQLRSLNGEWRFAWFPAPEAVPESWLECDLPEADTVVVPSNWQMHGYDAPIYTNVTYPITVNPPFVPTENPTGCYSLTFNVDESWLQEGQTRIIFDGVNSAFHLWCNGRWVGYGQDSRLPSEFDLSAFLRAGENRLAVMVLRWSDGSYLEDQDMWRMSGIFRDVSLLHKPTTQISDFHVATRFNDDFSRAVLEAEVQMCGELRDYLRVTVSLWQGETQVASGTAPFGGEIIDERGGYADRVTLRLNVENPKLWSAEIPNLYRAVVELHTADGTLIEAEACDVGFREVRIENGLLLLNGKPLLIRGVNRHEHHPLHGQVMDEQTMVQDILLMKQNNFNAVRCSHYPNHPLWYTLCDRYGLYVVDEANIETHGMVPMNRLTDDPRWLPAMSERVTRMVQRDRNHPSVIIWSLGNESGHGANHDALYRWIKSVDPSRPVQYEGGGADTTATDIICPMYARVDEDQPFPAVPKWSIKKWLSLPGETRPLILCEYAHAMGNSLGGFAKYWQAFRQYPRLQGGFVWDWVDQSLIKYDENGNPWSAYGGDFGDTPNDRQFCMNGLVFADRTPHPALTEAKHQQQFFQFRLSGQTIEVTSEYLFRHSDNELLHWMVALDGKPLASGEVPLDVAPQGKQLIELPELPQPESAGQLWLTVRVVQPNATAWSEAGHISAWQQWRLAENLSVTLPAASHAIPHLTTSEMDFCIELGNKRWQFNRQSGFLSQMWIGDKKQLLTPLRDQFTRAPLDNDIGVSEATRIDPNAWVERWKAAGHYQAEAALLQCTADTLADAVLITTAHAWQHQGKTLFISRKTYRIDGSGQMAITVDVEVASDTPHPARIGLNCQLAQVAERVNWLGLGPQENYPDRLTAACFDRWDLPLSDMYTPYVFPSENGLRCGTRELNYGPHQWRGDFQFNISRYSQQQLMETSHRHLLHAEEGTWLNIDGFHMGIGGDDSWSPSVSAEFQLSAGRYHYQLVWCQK

[3] = biological target: T1, Type-1 angiotensin II receptor (Homo sapiens, UniProt P30556); assay: antagonism of angiotensin II type 1 receptor – cell-based, uHTS hits, selectivity assay for APJ receptor antagonist project, dose response (AID 463214); format: functional;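 also: antagonist potency against angiotensin II stimulated AT1 response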
T1 sequence (P30556 whole entry): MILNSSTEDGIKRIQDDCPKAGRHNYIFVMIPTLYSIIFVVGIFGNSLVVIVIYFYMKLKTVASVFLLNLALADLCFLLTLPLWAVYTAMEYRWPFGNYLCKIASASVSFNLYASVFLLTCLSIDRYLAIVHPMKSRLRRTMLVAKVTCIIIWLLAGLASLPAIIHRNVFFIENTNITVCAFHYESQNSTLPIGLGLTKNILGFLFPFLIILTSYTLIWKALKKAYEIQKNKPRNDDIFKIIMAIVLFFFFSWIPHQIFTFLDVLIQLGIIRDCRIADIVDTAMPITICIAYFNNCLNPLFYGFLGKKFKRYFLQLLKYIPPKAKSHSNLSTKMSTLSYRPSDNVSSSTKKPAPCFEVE

cells [4] = format: functional, cell-based; remark: listed apart in the source
INS1 = assay: INS-1E survival protection against cytokine death – cell-based, luminescence, retest, dose response (AID 449756); format: functional; details: Rattus norvegicus;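 also: cell death triggered by IL-1 beta plus TNF-alpha plus IFN-gamma mixture; protective hits raise ATP signal compared with cytokine alone wells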
Cytochrome P450 2C19 = Cytochrome P450 2C19 (Homo sapiens, UniProt P33261); assay: Cytochrome panel assay with activity outcomes. Panel member name: p450-cyp2c19 Compounds with AC50 equal or less than 10 uM are considered active; format: functional; details: read-out: AC50
Chain of Cytochrome P450 2C19 (P33261 whole entry): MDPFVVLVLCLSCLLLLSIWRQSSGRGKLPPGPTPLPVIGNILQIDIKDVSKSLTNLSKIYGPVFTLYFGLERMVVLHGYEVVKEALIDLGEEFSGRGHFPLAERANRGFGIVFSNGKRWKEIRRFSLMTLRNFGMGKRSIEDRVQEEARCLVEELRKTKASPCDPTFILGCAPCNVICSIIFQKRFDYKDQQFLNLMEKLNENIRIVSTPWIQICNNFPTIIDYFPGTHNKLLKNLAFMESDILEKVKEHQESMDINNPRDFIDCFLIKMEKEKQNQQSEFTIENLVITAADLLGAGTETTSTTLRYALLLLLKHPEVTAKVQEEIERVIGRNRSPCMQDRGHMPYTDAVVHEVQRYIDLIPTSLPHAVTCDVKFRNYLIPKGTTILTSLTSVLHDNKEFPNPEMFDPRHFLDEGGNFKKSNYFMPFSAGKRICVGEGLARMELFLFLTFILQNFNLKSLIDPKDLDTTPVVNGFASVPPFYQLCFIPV

Cytochrome P450 3A4 = Cytochrome P450 3A4 (Homo sapiens, UniProt P08684);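 also: CYP3A4 tested as one member of a cytochrome P450 panel screen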
Chain of Cytochrome P450 3A4 (P08684 whole entry): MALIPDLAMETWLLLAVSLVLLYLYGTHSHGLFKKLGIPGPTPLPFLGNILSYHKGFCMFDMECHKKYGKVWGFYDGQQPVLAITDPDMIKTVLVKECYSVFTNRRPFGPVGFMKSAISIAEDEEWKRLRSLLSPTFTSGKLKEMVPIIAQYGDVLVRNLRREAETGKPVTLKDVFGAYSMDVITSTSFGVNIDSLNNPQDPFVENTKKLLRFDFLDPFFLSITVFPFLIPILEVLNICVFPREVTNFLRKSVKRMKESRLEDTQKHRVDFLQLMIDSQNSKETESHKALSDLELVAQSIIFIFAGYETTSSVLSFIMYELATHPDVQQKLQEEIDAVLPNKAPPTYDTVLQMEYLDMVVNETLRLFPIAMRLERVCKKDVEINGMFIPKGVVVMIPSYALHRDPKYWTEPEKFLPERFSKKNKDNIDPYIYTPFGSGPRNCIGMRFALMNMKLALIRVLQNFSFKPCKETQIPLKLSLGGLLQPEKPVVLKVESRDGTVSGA

Cytochrome P450 2C9 = Cytochrome P450 2C9 (Homo sapiens, UniProt P11712)
Chain of Cytochrome P450 2C9 (P11712 whole entry): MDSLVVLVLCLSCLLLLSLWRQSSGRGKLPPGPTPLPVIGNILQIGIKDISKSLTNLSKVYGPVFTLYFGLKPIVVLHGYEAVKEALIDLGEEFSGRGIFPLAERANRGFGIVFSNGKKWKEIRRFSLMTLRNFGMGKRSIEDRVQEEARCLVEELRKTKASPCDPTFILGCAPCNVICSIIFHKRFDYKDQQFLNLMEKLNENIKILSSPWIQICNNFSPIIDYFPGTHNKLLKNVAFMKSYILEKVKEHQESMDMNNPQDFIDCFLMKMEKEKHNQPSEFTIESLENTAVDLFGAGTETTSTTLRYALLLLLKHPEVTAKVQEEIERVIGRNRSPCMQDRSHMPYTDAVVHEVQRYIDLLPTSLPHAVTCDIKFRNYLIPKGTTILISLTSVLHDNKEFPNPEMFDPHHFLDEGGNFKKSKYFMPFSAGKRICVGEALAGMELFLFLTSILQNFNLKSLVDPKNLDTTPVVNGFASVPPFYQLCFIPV

[5] = biological target: T2, Adenosylmethionine-8-amino-7-oxononanoate aminotransferase (Mycobacterium tuberculosis, UniProt P9WQ81); assay: Mycobacterium tuberculosis BioA enzyme inhibitor Measured in Biochemical System Using Plate Reader - 2163-02_Inhibitor_Dose_CherryPick_Activity.; format: functional, Mycobacterium tuberculosis UT205
T2 sequence (P9WQ81 whole entry): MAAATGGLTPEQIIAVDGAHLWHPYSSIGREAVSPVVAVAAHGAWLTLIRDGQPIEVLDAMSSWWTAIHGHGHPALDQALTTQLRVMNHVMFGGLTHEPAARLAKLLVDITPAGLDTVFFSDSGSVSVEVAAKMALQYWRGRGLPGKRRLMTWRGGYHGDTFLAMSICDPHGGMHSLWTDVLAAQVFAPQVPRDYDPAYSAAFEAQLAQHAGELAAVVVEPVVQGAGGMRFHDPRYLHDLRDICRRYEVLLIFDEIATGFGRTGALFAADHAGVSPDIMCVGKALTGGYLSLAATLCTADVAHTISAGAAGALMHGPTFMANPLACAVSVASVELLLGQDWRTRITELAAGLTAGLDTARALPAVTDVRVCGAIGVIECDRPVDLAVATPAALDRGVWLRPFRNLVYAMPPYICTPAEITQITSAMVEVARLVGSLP

Cytochrome P450 1A2 = biological target: T3, Cytochrome P450 1A2 (Homo sapiens, UniProt P05177);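 also: PubChem cytochrome P450 panel assay, CYP1A2 panel member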
T3 sequence (P05177 whole entry): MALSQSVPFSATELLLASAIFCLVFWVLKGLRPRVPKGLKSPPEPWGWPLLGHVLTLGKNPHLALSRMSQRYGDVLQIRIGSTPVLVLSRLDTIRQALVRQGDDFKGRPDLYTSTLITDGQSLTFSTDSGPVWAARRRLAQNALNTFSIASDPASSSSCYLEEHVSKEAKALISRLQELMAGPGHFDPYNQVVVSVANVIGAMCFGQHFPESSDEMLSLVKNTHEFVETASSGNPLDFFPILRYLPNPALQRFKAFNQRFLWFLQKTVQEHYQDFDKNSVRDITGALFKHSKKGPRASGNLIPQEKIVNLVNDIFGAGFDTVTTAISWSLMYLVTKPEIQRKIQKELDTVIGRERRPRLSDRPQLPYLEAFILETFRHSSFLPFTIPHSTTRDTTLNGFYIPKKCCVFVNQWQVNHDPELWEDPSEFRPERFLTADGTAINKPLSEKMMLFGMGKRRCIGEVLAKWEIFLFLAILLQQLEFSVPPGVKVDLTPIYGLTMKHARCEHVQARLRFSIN

[6] = Trypanosoma cruzi growth suppression in host cells – NIH3T3 host cells, beta-gal luminescence, confirmation (AID 2044); format: functional, cell-based;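 also: intracellular parasites grown in NIH/3T3 mouse fibroblasts as host cells; luminescent beta-galactosidase reporter signal from transgenic T. cruzi replicating inside host cells; inhibitors lower the luminescence signal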
[7] = NIH3T3 cell viability loss – ATP luminescence, mouse fibroblasts, counter-screen, dose response (AID 2010); format: functional, cell-based;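 also: cells exposed to compound for about 90 hours before reading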
[8] = THP-1 cell cytotoxicity, dose response, cytotoxicity control for non-replicating M. tuberculosis project (AID 489025); format: functional
[9] = Vero E6 cell cytotoxicity, dose response, cytotoxicity control for non-replicating M. tuberculosis project, secondary assay (AID 492998); format: functional, VeroE6; details: Vero C1008
cells [10] = format: functional
[11] = biological target: Photoreceptor-specific nuclear receptor (Homo sapiens, UniProt Q9Y5X4); format: functional, cell-based;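 also: CHO-S cells with Gal4-NCOR and VP16-NR2E3 two-hybrid luciferase reporter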
Chain of Photoreceptor-specific nuclear receptor (Q9Y5X4 whole entry, the tested form may be a part): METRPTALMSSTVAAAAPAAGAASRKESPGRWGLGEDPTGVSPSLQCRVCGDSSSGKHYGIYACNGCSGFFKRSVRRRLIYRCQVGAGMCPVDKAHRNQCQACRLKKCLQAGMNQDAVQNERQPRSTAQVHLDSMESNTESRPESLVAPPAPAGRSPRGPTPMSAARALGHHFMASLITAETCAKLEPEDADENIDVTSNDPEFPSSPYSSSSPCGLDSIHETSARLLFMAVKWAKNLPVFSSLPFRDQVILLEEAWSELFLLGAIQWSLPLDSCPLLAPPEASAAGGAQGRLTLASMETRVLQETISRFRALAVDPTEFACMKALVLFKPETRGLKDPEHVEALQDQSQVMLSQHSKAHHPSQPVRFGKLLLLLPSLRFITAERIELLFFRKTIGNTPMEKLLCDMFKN

Escherichia coli = assay: microbe, parasite or virus in culture

Chain of Voltage-gated inwardly rectifying potassium channel KCNH2 (Q12809 whole entry): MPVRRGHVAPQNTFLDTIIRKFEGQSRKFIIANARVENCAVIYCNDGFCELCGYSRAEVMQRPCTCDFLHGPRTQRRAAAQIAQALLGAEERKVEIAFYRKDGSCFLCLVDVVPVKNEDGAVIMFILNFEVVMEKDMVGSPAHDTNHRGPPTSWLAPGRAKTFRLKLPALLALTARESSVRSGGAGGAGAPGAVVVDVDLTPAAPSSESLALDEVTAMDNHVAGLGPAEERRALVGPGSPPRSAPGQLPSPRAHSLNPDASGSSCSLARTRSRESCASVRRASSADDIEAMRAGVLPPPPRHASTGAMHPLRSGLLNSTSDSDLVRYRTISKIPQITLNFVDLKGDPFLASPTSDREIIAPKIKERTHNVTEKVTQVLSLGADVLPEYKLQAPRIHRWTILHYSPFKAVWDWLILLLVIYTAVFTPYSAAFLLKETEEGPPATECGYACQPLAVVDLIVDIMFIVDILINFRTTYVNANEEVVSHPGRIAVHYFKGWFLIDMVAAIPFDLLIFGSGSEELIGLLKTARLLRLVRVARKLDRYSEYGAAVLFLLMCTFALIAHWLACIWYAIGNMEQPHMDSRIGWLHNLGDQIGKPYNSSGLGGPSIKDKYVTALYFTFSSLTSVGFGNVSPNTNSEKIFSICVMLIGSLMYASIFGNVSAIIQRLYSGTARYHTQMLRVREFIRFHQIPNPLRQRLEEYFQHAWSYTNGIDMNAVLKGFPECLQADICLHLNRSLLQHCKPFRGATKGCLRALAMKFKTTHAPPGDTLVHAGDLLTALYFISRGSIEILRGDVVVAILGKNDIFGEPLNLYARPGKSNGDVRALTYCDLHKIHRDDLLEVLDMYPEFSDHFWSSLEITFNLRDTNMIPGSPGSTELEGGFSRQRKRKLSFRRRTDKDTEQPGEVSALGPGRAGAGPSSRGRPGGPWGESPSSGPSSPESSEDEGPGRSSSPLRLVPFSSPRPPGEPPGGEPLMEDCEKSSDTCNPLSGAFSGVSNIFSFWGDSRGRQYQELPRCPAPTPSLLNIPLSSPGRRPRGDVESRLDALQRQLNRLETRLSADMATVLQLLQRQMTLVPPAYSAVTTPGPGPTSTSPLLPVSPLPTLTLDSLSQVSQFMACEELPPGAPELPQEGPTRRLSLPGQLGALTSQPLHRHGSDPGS

Question: For `c1ccc2c(N3CCNCC3)cccc2c1`, which AC50 [1] is on record?
Answer: 35.5 µM (inconclusive)

Question: With `O=C(Nc1nc(-c2ccccn2)cs1)c1cc(Cl)ccc1[N+](=O)[O-]` as the molecule, how does the EC50 (cells [2]) read?
Answer: 9.68 µM (active)

Question: And the EC50 (Beta-galactosidase)?
Answer: > 40 µM (inactive)

Question: What about the IC50 [3] of the same molecule?
Answer: 5.37 µM (active)

Question: And the EC50 (cells [4])?
Answer: > 350 µM (not active)

Question: And the AC50 (INS1)?
Answer: 1.06 µM (active)

Question: With `CC(C(=O)OCC(=O)c1cccc([N+](=O)[O-])c1)N1C(=O)C2C3C=CC(C3)C2C1=O` (stereo unspecified) as the molecule, how does the EC50 (Beta-galactosidase) read?
Answer: > 40 µM (inactive)

Question: What about the IC50 [3] of the same molecule?
Answer: > 40 µM (not active)

Question: For `COc1ccc(C(=O)Nc2ccc(F)cc2F)cc1OC`, which AC50 (Cytochrome P450 2C19) is on record?
Answer: 39.8 µM (inconclusive)

Question: And the AC50 (Cytochrome P450 3A4)?
Answer: 25.1 µM (inconclusive)

Question: And the AC50 (Cytochrome P450 2C9)?
Answer: inconclusive

Question: Which AC50 [5] does the source give for `COC(=O)c1c(C(=O)OC)c(-c2ccccc2)n2c1C[S+]([O-])C2` (stereo unspecified) here?
Answer: 4.67 µM (active)

Question: For `Cn1cccc1C(=O)C(=O)Nc1cccc(Cl)c1Cl`, which AC50 (Cytochrome P450 2C9) is on record?
Answer: inconclusive

Question: For `COC(=O)C1=C(C)N(Cc2ccccc2)C(=NCC(C)C)N[C@H]1c1cccc(F)c1`, which EC50 (Beta-galactosidase) is on record?
Answer: > 40 µM (inactive)

Question: And the IC50 [3]?
Answer: > 40 µM (not active)

Question: Which results are given for `O=c1c(-c2ccc(Cl)cc2)nc2cnc(N3CCOCC3)nc2n1-c1ccccc1`?
Answer: AC50 (Cytochrome P450 1A2): 2 µM (inconclusive); AC50 (Cytochrome P450 2C9): inconclusive

Question: With `CCN1CCN(c2ccc(S(=O)(=O)N3CCCCC3)cc2NC(=O)c2ccc([N+](=O)[O-])o2)CC1` as the molecule, how does the EC50 [6] read?
Answer: 0.741 µM (active)

Question: And the EC50 [7]?
Answer: 23.8 µM (active)

Question: And the CC50 [8]?
Answer: 19.1 µM (active)

Question: And the CC50 [9]?
Answer: 16.7 µM (active)

Question: And the IC50 (cells [10])?
Answer: 12.8 µM (active)

Question: And the AC50 (INS1)?
Answer: 3.27 µM (active)

Question: For `CCOc1ccc(CCNC(=O)c2cccnc2N2CCCC2)cc1OCC`, which EC50 (Beta-galactosidase) is on record?
Answer: > 40 µM (inactive)

Question: What about the IC50 [3] of the same molecule?
Answer: > 40 µM (not active)

Question: For `CCCCCCc1ccc(-c2ccc(C#N)cc2)cc1`, which AC50 [1] is on record?
Answer: 6.31 µM (inconclusive)

Question: Which IC50 [11] does the source give for `COc1ccc(OC)c(NC(=O)CSc2nnnn2-c2ccc3c(c2)OCO3)c1` here?
Answer: 0.24 µM (active)

Question: Which AC50 (Escherichia coli) does the source give for `O=S(=O)(NC1CCCCC1)c1ccc(Cl)s1` here?
Answer: 115 µM (active)

Question: For `N=C1N=C(N)c2cc3ccccc3cc21`, which AC50 [1] is on record?
Answer: 28.2 µM (inconclusive)

Question: Which CC50 [9] does the source give for `C=CCn1c(NC(=O)c2ccccc2)nc2ccccc21` here?
Answer: 17.7 µM (active)

Question: What about the IC50 (cells [10]) of the same molecule?
Answer: 0.68 µM (active)
